According to paper PMC10303271, “Synthesis and Receptor Binding Studies of α5 GABAAR Selective Novel Imidazodiazepines Targeted for Psychiatric and Cognitive Disorders” (Molecules, 2023):

Experiments:
Alpha4Beta2 = target: T1, Alpha4Beta2 (Rattus norvegicus, UniProt P09483+P12390); assay: PDSP primary binding Alpha4Beta2; settings: primary binding, 10,000 nM; last figure of the line = mean of the 4 before it; read-out: Alpha4Beta2, PDSP raw data, mean
T1 construct: purchased NIMH Psychoactive Drug Screening Program (PDSP)
T1 sequence (P09483 31-630): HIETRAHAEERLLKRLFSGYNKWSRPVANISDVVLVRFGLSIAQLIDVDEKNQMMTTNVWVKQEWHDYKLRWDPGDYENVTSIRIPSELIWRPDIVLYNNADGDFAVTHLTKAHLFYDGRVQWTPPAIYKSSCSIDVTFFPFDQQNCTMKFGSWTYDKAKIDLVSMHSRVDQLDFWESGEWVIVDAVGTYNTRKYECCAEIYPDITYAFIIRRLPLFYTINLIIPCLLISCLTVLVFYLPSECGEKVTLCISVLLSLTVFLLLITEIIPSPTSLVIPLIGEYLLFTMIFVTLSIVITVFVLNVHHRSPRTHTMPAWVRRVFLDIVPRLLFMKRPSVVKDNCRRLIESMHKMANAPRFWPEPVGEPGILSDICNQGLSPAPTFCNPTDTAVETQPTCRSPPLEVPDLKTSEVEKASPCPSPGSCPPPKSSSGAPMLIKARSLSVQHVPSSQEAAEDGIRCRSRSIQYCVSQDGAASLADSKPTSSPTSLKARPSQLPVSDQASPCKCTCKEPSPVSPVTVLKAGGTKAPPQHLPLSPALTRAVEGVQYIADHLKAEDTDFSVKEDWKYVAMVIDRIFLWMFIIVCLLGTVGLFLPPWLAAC
T1 sequence (P12390 25-500): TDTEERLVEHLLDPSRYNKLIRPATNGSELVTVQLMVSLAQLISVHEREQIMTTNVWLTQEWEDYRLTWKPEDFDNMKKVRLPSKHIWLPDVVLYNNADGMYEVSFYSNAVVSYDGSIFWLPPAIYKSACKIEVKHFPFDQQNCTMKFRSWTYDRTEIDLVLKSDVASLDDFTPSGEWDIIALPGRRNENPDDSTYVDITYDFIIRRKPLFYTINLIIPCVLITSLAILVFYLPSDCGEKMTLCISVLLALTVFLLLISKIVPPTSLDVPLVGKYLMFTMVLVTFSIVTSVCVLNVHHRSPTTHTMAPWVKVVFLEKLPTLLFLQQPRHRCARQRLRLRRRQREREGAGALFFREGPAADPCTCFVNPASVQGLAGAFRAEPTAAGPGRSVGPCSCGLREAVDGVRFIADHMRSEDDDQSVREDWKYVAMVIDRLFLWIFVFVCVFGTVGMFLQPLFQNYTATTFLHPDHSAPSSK
Description: (§1) To determine if any off-target receptor-binding effects are present, all the novel ligands were sent to the National Institute of Mental Health (NIMH), Psychoactive Drug Screening Program (PDSP). The ligands were screened over a panel of 47 receptors, ion channels, and transporters to determine any other possible interactions with […]. The hERG-binding was also determined. […] No binding of the test compounds to calcium channels was observed. […] It is necessary to screen the compounds for hERG-binding during the early process of drug discovery. The unintentional binding of many drugs to hERG can cause blockade of hERG K+ channels in the heart, which can cause many side effects including cardiac arrhythmias and sudden death. […] All of the α5 imidazodiazepines were tested for hERG-binding.
(§2) The NIMH PDSP assay protocol book [https://kidbdev.med.unc.edu/databases/PDSP%20Protocols%20II%202013-03-28.pdf accessed on 23 April 2023]. describes the protocols for primary and secondary radio-ligand binding assays. These assays were carried out in a final volume of 125 µL per well in the appropriate binding buffer.
(§3) The binding of a ligand to a receptor, ion channel, or transporter was determined in the […] of 10 µM of the appropriate reference compound. […] Plates were incubated in the dark for 90 min at rt, and the reactions were stopped by vacuum filtration onto 0.3% polyethyleneimine (PEI) soaked 96-well filter mats using a 96-well Filtermateharvester. This was followed by three washes with cold PBS buffer. Radioactivity was then counted on a Microbeta counter. Nonlinear regression was used to analyze the data with N = 6 replicates.

NMDA = assay: PDSP primary binding NMDA; settings: primary binding, 10,000 nM; last figure of the line = mean of the 4 before it
Description: as §1, §2, §3

M4 D = target: T2, M4 D (Homo sapiens, UniProt P08173, A203G/Y113C); assay: PDSP primary binding M4 D; settings: primary binding, 10,000 nM; last figure of the line = mean of the 4 before it; read-out: M4 D, PDSP raw data, mean
T2 construct: purchased NIMH Psychoactive Drug Screening Program (PDSP)
T2 sequence (P08173 1-479 Y113C/A203G): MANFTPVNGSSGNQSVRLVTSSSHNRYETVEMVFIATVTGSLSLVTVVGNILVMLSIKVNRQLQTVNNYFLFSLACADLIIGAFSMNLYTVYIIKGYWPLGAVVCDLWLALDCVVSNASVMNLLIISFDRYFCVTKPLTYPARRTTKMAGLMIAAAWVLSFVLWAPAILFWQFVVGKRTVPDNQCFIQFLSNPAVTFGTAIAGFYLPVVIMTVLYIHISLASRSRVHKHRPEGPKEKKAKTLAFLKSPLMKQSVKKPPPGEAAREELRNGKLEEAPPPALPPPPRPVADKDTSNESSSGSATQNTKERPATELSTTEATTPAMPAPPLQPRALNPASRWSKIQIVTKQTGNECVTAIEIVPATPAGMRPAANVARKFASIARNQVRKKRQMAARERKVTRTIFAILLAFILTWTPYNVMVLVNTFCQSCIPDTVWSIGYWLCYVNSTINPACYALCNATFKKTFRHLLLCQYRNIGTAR
Description: as §1, §2, §3

Alpha1B = target: T3, Alpha1B (Homo sapiens, UniProt P35368); assay: PDSP primary binding Alpha1B; settings: 1.5 h; primary binding, 10,000 nM; last figure of the line = mean of the 4 before it; read-out: Alpha1B, PDSP raw data, mean
T3 construct: purchased NIMH Psychoactive Drug Screening Program (PDSP)
T3 sequence (P35368 1-520): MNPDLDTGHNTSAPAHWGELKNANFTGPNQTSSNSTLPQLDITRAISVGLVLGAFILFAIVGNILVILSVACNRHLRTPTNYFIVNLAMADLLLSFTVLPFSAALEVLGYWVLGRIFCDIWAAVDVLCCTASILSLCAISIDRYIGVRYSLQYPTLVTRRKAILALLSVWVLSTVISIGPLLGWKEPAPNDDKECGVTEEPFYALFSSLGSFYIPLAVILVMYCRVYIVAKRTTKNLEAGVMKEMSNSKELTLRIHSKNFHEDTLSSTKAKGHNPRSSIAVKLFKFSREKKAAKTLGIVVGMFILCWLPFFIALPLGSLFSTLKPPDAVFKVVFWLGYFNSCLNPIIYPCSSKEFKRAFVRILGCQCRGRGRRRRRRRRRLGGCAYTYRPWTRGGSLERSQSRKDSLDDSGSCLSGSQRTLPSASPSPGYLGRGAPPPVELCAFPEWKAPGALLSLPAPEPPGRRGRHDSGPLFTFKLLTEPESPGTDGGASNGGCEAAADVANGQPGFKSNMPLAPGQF
Description: as §1, §2, §3

NET = target: T4, NET (Homo sapiens, UniProt P23975); assay: PDSP primary binding NET; settings: primary binding, 10,000 nM; last figure of the line = mean of the 4 before it; read-out: NET, PDSP raw data, mean
T4 construct: purchased NIMH Psychoactive Drug Screening Program (PDSP)
T4 sequence (P23975 whole entry): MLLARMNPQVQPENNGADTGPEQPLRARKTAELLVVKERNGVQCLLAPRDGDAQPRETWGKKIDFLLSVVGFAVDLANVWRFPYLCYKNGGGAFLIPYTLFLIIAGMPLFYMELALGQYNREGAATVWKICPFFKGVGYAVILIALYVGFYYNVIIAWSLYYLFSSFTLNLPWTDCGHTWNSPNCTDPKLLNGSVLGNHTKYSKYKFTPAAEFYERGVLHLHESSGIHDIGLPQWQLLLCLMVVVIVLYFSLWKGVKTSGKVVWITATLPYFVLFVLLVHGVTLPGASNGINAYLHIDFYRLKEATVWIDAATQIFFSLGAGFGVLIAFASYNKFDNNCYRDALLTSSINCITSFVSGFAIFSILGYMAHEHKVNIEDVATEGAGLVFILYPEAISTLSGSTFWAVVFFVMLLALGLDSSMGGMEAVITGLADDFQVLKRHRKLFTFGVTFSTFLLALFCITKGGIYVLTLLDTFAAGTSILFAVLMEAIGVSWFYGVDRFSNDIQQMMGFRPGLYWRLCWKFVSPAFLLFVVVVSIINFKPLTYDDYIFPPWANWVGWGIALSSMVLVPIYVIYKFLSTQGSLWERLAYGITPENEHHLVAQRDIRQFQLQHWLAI
Description: as §1, §2, §3

Ca channel human = assay: PDSP primary binding Ca channel; settings: primary binding, 10,000 nM; last figure of the line = mean of the 4 before it
Description: as §1, §2, §3

H2 = target: T5, H2 (Homo sapiens, UniProt P25021); assay: PDSP primary binding H2; settings: primary binding, 10,000 nM; last figure of the line = mean of the 4 before it; read-out: H2, PDSP raw data, mean
T5 construct: purchased NIMH Psychoactive Drug Screening Program (PDSP)
T5 sequence (P25021 whole entry): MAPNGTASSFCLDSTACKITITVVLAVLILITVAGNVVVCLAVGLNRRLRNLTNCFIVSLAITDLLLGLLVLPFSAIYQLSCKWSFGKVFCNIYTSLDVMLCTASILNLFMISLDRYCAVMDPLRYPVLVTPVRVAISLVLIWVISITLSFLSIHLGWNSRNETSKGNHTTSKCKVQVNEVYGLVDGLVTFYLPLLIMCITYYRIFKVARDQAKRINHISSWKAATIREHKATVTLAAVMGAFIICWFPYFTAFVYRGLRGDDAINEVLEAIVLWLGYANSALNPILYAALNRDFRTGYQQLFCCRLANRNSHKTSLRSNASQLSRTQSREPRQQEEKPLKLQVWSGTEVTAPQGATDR
Description: as §1, §2, §3

BZP rat brain site = assay: PDSP binding at BZP rat brain site; settings: for Ki: N = 2, read-out: Binding Affinity BZR Secondary Screening Ki; for Ki / Binding Affinity BZR % Inhibition (Primary): rat brain; for BZP Rat Brain Site, PDSP raw data, mean: primary binding, 10,000 nM, last figure of the line = mean of the 4 before it; for Binding Affinity BZR % Inhibition (Primary): at 10,000 nM, N = 5
Description: The BZR binding affinity of the test compounds was also measured using rat brain BzR. […] The efficacy of imidazodiazepines on the benzodiazepine receptor depends on various factors, including the specific subtype of the receptor they bind to, their chemical structure, and the dose.
as §2, §3

H4 = target: T6, H4 (Homo sapiens, UniProt Q9H3N8); assay: PDSP primary binding H4; settings: primary binding, 10,000 nM; last figure of the line = mean of the 4 before it; read-out: H4, PDSP raw data, mean
T6 construct: purchased NIMH Psychoactive Drug Screening Program (PDSP)
T6 sequence (Q9H3N8 whole entry): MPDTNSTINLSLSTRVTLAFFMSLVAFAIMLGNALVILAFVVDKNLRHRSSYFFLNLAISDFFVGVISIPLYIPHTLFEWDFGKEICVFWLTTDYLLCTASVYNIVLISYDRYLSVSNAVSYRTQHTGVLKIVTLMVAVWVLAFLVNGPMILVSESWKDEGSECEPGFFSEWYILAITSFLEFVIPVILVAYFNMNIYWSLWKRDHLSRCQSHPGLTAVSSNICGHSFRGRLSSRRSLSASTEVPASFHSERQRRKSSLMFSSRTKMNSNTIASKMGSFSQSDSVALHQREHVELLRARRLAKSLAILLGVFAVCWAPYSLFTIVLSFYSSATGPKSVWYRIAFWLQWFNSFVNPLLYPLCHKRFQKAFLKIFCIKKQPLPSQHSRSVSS
Description: as §1, §2, §3

Sigma 1 = assay: PDSP primary binding Sigma 1; settings: primary binding, 10,000 nM; last figure of the line = mean of the 4 before it
Description: as §1, §2, §3

5-HT1D = target: T7, 5-HT1D (Homo sapiens, UniProt P28221); assay: PDSP primary binding 5-HT1D; settings: 1.5 h; primary binding, 10,000 nM; last figure of the line = mean of the 4 before it; read-out: 5-HT1D, PDSP raw data, mean
T7 construct: purchased NIMH Psychoactive Drug Screening Program (PDSP)
T7 sequence (P28221 whole entry): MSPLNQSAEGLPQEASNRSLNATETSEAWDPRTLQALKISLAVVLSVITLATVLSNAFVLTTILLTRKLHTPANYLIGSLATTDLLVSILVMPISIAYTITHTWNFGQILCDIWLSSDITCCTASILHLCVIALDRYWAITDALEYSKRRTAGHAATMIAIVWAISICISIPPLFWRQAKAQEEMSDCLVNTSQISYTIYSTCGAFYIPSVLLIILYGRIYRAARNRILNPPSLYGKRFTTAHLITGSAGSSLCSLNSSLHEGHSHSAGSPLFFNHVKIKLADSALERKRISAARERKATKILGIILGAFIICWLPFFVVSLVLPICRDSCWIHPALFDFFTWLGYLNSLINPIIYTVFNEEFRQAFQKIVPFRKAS
Description: as §1, §2, §3

Beta3 = target: T8, Beta3 (Homo sapiens, UniProt P13945); assay: PDSP primary binding Beta3; settings: 1.5 h; primary binding, 10,000 nM; last figure of the line = mean of the 4 before it; read-out: Beta3, PDSP raw data, mean
T8 construct: purchased NIMH Psychoactive Drug Screening Program (PDSP)
T8 sequence (P13945 whole entry): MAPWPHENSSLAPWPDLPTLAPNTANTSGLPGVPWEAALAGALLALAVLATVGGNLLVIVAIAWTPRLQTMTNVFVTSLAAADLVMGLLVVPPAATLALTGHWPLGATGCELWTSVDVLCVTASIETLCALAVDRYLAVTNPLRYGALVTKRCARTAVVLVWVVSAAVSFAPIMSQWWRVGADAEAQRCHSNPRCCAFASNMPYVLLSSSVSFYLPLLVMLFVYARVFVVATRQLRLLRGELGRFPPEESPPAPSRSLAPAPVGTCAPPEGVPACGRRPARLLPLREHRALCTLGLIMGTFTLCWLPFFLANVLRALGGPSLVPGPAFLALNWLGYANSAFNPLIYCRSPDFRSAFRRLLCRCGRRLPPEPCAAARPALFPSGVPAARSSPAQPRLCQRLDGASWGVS
Description: as §1, §2, §3

H3 = target: T9, H3 (Homo sapiens, UniProt Q9Y5N1); assay: PDSP primary binding H3; settings: primary binding, 10,000 nM; last figure of the line = mean of the 4 before it; read-out: H3, PDSP raw data, mean
T9 construct: purchased NIMH Psychoactive Drug Screening Program (PDSP)
T9 sequence (Q9Y5N1 whole entry): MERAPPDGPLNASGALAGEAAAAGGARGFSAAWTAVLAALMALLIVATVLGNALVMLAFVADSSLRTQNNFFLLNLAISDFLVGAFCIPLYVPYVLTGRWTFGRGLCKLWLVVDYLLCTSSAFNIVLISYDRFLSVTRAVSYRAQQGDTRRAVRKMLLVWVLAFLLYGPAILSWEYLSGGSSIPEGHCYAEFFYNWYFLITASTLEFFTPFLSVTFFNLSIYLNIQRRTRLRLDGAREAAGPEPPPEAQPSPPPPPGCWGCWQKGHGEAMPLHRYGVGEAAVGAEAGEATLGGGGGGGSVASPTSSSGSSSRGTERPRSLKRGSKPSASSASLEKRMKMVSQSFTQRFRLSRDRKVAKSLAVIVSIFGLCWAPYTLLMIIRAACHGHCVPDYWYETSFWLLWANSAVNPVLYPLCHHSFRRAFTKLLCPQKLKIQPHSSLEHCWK
Description: as §1, §2, §3

Structure (SMILES)	inhibition at 10 µM (Alpha4Beta2)	NMDA, PDSP raw data, mean (NMDA)	inhibition at 10 µM (M4 D)	inhibition at 10 µM (Alpha1B)	inhibition at 10 µM (NET)	Ca channel human, PDSP raw data, mean (Ca channel human)	inhibition at 10 µM (H2)	Ki (BZP rat brain site)	BZP Rat Brain Site, PDSP raw data, mean (BZP rat brain site)	inhibition at 10 µM (H4)	Sigma 1, PDSP raw data, mean (Sigma 1)	inhibition at 10 µM (5-HT1D)	inhibition at 10 µM (Beta3)	inhibition at 10 µM (H3)	Binding Affinity BZR % Inhibition (Primary) (BZP rat brain site)
C#Cc1ccc2c(c1)C(c1ccccc1F)=N[C@H](C)c1c(C(=S)N(C)C)ncn1-2 [Compound 33, (R)-8-Ethynyl-6-(2′-fluorophenyl)-N,N,4-trimethyl-4H-benzo[f]imidazo[1,5-a][1,4]diazepine-3-carbothioamide]	-1.65%	43.17%	27.2%	-15.3%	-6%	39.05%	-1.42%	0.871 ± 0.00872 µM	94.79%	0.9%	46.91%	-3.41%	-19.4%	5.94%	
C#Cc1ccc2c(c1)C(c1ccccc1Cl)=N[C@H](C)c1c(C(=O)NC)ncn1-2 [Compound 21, (R)-6-(2′-Chlorophenyl)-8-ethynyl-N,4-dimethyl-4H-benzo[f]imidazo[1,5-a][1,4]diazepine-3-carboxamide]	4.88%	77.15%	1.13%	-6.66%	-2.45%	9.85%	-2.07%	0.0777 ± 0.00293 µM		-4.41%	44.58%	-9.02%	10.7%	4.81%	94.96 ± 2.06%
CCc1noc(-c2ncn3c2[C@@H](C)N=C(c2ccccc2F)c2cc(C4CC4)ccc2-3)n1 [Compound 46, (R)-5-(8-Cyclopropyl-6-(2′-fluorophenyl)-4-methyl-4H-benzo[f]imidazo[1,5-a][1,4]diazepin-3-yl)-3-ethyl-1,2,4-oxadiazole]	4.59%	66.04%	33.1%	9.31%	24.3%	36.53%	6.98%	3.79 ± 0.632 µM		21.7%	34.74%	17.7%	31.1%	-6.39%	65.25 ± 5.33%
CC(C)c1noc(-c2ncn3c2[C@@H](C)N=C(c2ccccc2F)c2cc(Cl)ccc2-3)n1 [Compound 37, (R)-5-(8-Chloro-6-(2′-fluorophenyl)-4-methyl-4H-benzo[f]imidazo[1,5-a][1,4]diazepin-3-yl)-3-isopropyl-1,2,4-oxadiazole]	6.16%	54.13%	-19.7%	4.27%	9.04%	7.04%	1.66%		74.07%	6.39%	5.67%	9.73%	46%	6.42%	
CCc1noc(-c2ncn3c2[C@@H](C)N=C(c2ccccc2F)c2cc(Cl)ccc2-3)n1 [Compound 36, (R)-5-(8-Chloro-6-(2′-fluorophenyl)-4-methyl-4H-benzo[f]imidazo[1,5-a][1,4]diazepin-3-yl)-3-ethyl-1,2,4-oxadiazole]	-1.38%	55.6%	26.6%	-0.79%	-2.36%	16.74%	5.61%	0.59 ± 0.0446 µM	81.81%	28.9%	46%	-1.16%	1.76%	-0.81%	
C[C@H]1N=C(c2ccccc2F)c2cc(-c3ccccc3)ccc2-n2cnc(C(=O)N(C)C)c21 [Compound 5, (R)-6-(2′-Fluorophenyl)-N,N,4-trimethyl-8-phenyl-4H-benzo[f]imidazo[1,5-a][1,4]diazepine-3-carboxamide]	-1.65%	43.17%	27.2%	-15.3%	-6%	39.05%	-1.42%	0.123 ± 0.0223 µM		0.9%	46.91%	-3.41%	-19.4%	5.94%	94.79 ± 1.08%
C#Cc1ccc2c(c1)C(c1ccccn1)=N[C@@H](C)c1c(C(=O)N(C)C)ncn1-2 [Compound 31, (S)-8-Ethynyl-N,N,4-trimethyl-6-(pyridin-2′-yl)-4H-benzo[f]imidazo[1,5-a][1,4]diazepine-3-carboxamide]	-0.84%	17.3%	56.8%	11%	10.2%	4.19%	-12.1%	0.838 ± 0.107 µM		-12.6%	27.79%	-15%	-6.68%	-5.55%	83.57 ± 1.57%
